Counter-ions that a name gives are not always drawn.
Experiments:
human 5-HT2C receptor = biological target: T1, human 5-HT2C receptor (Homo sapiens, UniProt P28335); test: calcium mobilization (FLIPR) in CHO cells stably expressing the human 5-HT2C receptor; assay type: cell-based; details: for Emax: CHO, read-out: 5-HT2C Function EMax (%); for EC50: calcium mobilization, read-out: 5-HT2C Function EC50
T1 sequence (P28335 33-458): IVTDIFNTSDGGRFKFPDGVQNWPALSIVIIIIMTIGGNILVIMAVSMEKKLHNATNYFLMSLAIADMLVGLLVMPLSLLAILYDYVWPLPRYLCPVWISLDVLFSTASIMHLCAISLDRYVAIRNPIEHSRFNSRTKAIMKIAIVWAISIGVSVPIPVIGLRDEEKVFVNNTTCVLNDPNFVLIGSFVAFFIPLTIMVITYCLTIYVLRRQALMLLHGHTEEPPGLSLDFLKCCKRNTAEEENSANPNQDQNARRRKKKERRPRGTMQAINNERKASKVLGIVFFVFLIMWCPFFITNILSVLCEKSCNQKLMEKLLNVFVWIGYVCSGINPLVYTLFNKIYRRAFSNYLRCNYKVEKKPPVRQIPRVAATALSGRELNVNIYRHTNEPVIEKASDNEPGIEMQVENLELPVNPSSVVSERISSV

[1] = obesity model, reduction of food intake in Zucker rats; assay type: in vivo
Experimental: (§1) To evaluate acute in vivo efficacy of various compounds, 7 weeks-old male C57BL/6J mice are obtained from The Jackson Laboratory (Bar Harbor, Me.) and 6 weeks-old lean Zucker fa/? rats are purchased from Charles River Laboratories (Wilmington, Mass.). Mice and rats are single housed in a temperature-controlled (25° C.) facility with a 12-h light/dark cycle. Animals are allowed normal chow diet (Rodent chow #5001, PharmaServ, Framingham, Mass.) and water ad libitum. After one week acclimation, animals are randomized to vehicle (saline) or treatment groups. Animals are fasted overnight (16 hrs) and orally dosed with vehicle or compounds. Thirty minutes after compound administration, animals are given a weighed amount of food, and food intake was recorded 30 minutes, 1 h, 2 h, 4 h, 7 h and 24 h after refeeding.
(§2) To assess in vivo efficacy of various 5-HT2C compounds on weight loss, 5 weeks-old male C57BL/6J-DIO mice were fed a high-fat high-sucrose diet (58 kcal % fat, 16.4 kcal % protein, 25.5 kcal % carbohydrate) for 11 weeks. 6 weeks-old male Zucker fa/fa rats purchased from Charles River Laboratories were also used. Mice and rats were single housed in a temperature-controlled (25° C.) facility with a 12-h light/dark cycle. Animals were allowed food and water ad libitum. After one week acclimation, animals were randomized to vehicle (saline) or treatment groups. Animals were orally dosed once daily for 14 days. Body weight, food consumption, and/or body composition (NMR) were recorded. Epidydimal adipose tissue was collected at the end of the study.

[2] = biological target: T2, human 5-hydroxytryptamine-2C (h5-HT2C) receptor (Homo sapiens, UniProt P28335); test: [125I]DOI binding to membranes of CHO cells expressing h5-HT2C receptor; details: read-out: 5-HT2C Binding Ki avg
T2 construct: expressed in transfected cells; host or cells: CHO (Chinese Hamster Ovary) cells; membrane preparation
T2 sequence (P28335 33-458): T1 sequence (P28335 33-458)

[3] = obesity model, reduction of food intake in C57BL/6J-DIO mice; assay type: in vivo
Experimental: as §1, §2

Compound `COc1ccccc1-c1cc(F)cc2c1O[C@@H](CN)C=C2` (as salt: hydrochloride) [Compound 65, {[(2R)-6-fluoro-8-(2-methoxyphenyl)-2H-chromen-2-yl]methyl}amine hydrochloride] has a melting point of 198 to 200 °C.

`NC[C@H]1CCc2ccc(F)c(-c3ccc(Cl)cc3Cl)c2O1` (as salt: hydrochloride) showed a melting point of 164 to 166 °C.

In the case of `CCNC[C@H]1CCc2cc(F)cc(-c3c(Cl)cccc3Cl)c2O1` (as salt: hydrochloride) [Compound 58, N-{[(2R)-8-(2,6-dichlorophenyl)-6-fluoro-3,4-dihydro-2H-chromen-2-yl]methyl}ethanamine hydrochloride], the melting point is reported as greater than 225 °C.

With `NC[C@H]1CCc2ccc(Cl)c(-c3ccccc3Cl)c2O1` (as salt: hydrochloride) the melting point was 220 to 222 °C.

`Cc1ccccc1-c1c(Cl)ccc2c1O[C@@H](CN)CC2` (as salt: hydrochloride) [Compound 69, ((2R)-7-Chloro-8-o-tolylchroman-2-yl)methanamine hydrochloride] gave a melting point of 155 °C.

`NC[C@H]1C=Cc2cc(F)cc(-c3c(Cl)cccc3Cl)c2O1` (as salt: hydrochloride) [Compound 66, {[(2R)-8-(2,6-dichlorophenyl)-6-fluoro-2H-chromen-2-yl]methyl}amine hydrochloride] showed a melting point of 153 to 155 °C.

Work on `NC[C@H]1C=Cc2cc(F)cc(-c3cc(Cl)ccc3Cl)c2O1` (as salt: hydrochloride) [Compound 63, {[(2R)-8-(2,5-dichlorophenyl)-6-fluoro-2H-chromen-2-yl]methyl}amine hydrochloride] yielded a melting point of 217 to 219 °C.

For `NC[C@H]1CCc2cc(F)cc(-c3c(Cl)cccc3Cl)c2O1` (as salt: hydrochloride) [Compound 57, {[(2R)-8-(2,6-dichlorophenyl)-6-fluoro-3,4-dihydro-2H-chromen-2-yl]methyl}amine hydrochloride], the melting point was 190 to 192 °C.

With `NC[C@H]1CCc2cccc(-c3c(Cl)cccc3Cl)c2O1` [Compound 36, {[(2R)-8-(2,6-dichlorophenyl)-3,4-dihydro-2H-chromen-2-yl]methyl}amine hydrochloride] the Emax (human 5-HT2C receptor) was 80%, the EC50 (human 5-HT2C receptor) was less than 50 nM and the “% Reduction food intake (vs vehicle)” value ([1]; 30 mpk oral, 0.5 hour) was 0 ± 16%. For the same compound, the “% Reduction food intake (vs vehicle)” value ([1]; 30 mpk oral, 2 hours) was 0 ± 8%, the “% Reduction food intake (vs vehicle)” value ([1]; 30 mpk oral, 4 hours) was 0 ± 9% and the “% Reduction food intake (vs vehicle)” value ([1]; 50 mpk oral, 0.5 hour) was 58 ± 9%. For the same compound, the “% Reduction food intake (vs vehicle)” value ([1]; 50 mpk oral, 2 hours) was 11 ± 17%, the “% Reduction food intake (vs vehicle)” value ([1]; 50 mpk oral, 4 hours) was 0 ± 13% and the Ki [2] was no more than 10 nM. For the same compound, the “% Reduction food intake (vs vehicle)” value ([3]; 30 mpk oral, 0.5 hour) was 86 ± 11%, the “% Reduction food intake (vs vehicle)” value ([3]; 30 mpk oral, 2 hours) was 72 ± 7% and the “% Reduction food intake (vs vehicle)” value ([3]; 30 mpk oral, 4 hours) was 65 ± 8%. For the same compound, the “% Reduction food intake (vs vehicle)” value ([3]; 50 mpk oral, 0.5 hour) was 83 ± 6%, the “% Reduction food intake (vs vehicle)” value ([3]; 50 mpk oral, 2 hours) was 77 ± 6% and the “% Reduction food intake (vs vehicle)” value ([3]; 50 mpk oral, 4 hours) was 67 ± 9%.

For `NC[C@H]1CCc2cccc(-c3c(Cl)cccc3Cl)c2O1` (as salt: hydrochloride) [Compound 36, {[(2R)-8-(2,6-dichlorophenyl)-3,4-dihydro-2H-chromen-2-yl]methyl}amine hydrochloride], the melting point was 188 to 190 °C.

`NC[C@H]1CCc2ccc(F)c(-c3ccccc3Cl)c2O1` (as salt: hydrochloride) [Compound 71, ((2R)-8-(2-chlorophenyl)-7-fluorochroman-2-yl)methanamine hydrochloride] showed a melting point of 223 to 225 °C.

In the case of `COc1ccccc1-c1cc(F)cc2c1O[C@@H](CN)CC2` (as salt: hydrochloride) [Compound 38, 1-[(2R)-6-fluoro-8-(2-methoxyphenyl)-3,4-dihydro-2H-chromen-2-yl]methanamine hydrochloride], the melting point is reported as 100 °C (dec.).

With `Cc1cc(Cl)ccc1-c1c(F)ccc2c1O[C@@H](CN)CC2` (as salt: hydrochloride) [Compound 72, ((2R)-8-(4-Chloro-2-methylphenyl)-7-fluorochroman-2-yl)methanamine hydrochloride] the melting point was 100 to 102 °C.

`NC[C@H]1C=Cc2cc(F)cc(-c3ccccc3Cl)c2O1` (as salt: hydrochloride) [Compound 64, {[(2R)-8-(2-chlorophenyl)-6-fluoro-2H-chromen-2-yl]methyl}amine hydrochloride] gave a melting point of 145 to 147 °C.

`NC[C@H]1CCc2cc(F)cc(-c3ccccc3-c3ccccc3)c2O1` (as salt: hydrochloride) showed a melting point of 98 °C.

In the case of `Cc1ccccc1-c1cccc2c1O[C@@H](CN)CC2` [Compound 17, {[(2R)-8-(2-methylphenyl)-3,4-dihydro-2H-chromen-2-yl]methyl}amine hydrochloride], the Emax (human 5-HT2C receptor) is reported as 80%, the EC50 (human 5-HT2C receptor) is reported as less than 50 nM and the Ki [2] is reported as no more than 10 nM.

In the case of `CNC[C@H]1CCc2cccc(-c3ccc(OC)cc3OC)c2O1` [Compound 7, N-{[(2R)-8-(2,4-dimethoxyphenyl)-3,4-dihydro-2H-chromen-2-yl]methyl}-N-methylamine hydrochloride], the Emax (human 5-HT2C receptor) is reported as 90%, the EC50 (human 5-HT2C receptor) is reported as less than 50 nM and the Ki [2] is reported as no more than 10 nM.

`NC[C@H]1C=Cc2cc(F)cc(-c3c(Cl)cccc3Cl)c2O1` [Compound 66, {[(2R)-8-(2,6-dichlorophenyl)-6-fluoro-2H-chromen-2-yl]methyl}amine hydrochloride] gave an Emax (human 5-HT2C receptor) of 90%, an EC50 (human 5-HT2C receptor) of less than 50 nM and a Ki [2] of no more than 10 nM.

Source: patent US7365095B2, “Chromane and chromene derivatives and uses thereof” (Wyeth, priority 2005, dated 2008)
